Measured values as given in patent publication US20200392079A1, “Compound, Photopolymerization Initiator Containing Said Compound, and Photosensitive Resin Composition Containing Said Photopolymerization Initiator” (Nippon Kayaku Kabushiki Kaisha, priority 2018, published 2020).

Assay: Solubility evaluation experiment (time required for dissolving in solvent)
Format: physicochemical
Method: After the components were mixed in a glass container in accordance with the formulation amounts (parts by mass) listed in Table 1, the solution was placed on a hot plate at 50° C. and stirred with a glass bar. The time (minute) required for dissolving was measured to evaluate the solubility.

[1] = 0.50 parts initiator in 1.00 parts (D-1) Cyclopentanon, hot plate 50° C., stirred with glass bar
[2] = 0.50 parts initiator in (D-2) 1-methoxy-2-propanol (PGME), 1.00 parts (1.43 parts for C-5), 50° C.
[3] = 0.50 parts initiator in (D-3) Polyethylene gylcol monomethylether acetate (PGMEA), 1.00-1.67 parts, 50° C.
[4] = 0.50 parts initiator in (D-4) 3-betoxymethanol, 1.11 parts (>5 parts for C-5), 50° C.

SMILES | Stirring time (time required for dissolving) [1] | Stirring time (time required for dissolving) [2] | Stirring time (time required for dissolving) [3] | Stirring time (time required for dissolving) [4]
C=C(C)C(=O)OCCNC(=O)OCC(O)(C(=O)c1ccc(SC)cc1)c1ccc(SC)cc1 (centres unmarked) [Initiator C-1] | 10 min | 19 min | 25 min | 40 min
C=CC(=O)OCCNC(=O)OCC(O)(C(=O)c1ccc(SC)cc1)c1ccc(SC)cc1 (centres unmarked) [Initiator C-2] | 15 min | 12 min | 20 min | 40 min
